Earlier results on one compound are cited in patent US20230041138A1, “TREATMENT OF HIS HYPORESPONDERS” (NewAmsterdam Pharma B.V. (Dutch Registration No. 55971946), priority 2021, published 2023).

The series concerns LDL-C. Particulars: rosuvastatin 20 mg; cited from earlier work.

Each structure is given as a SMILES string.

With `CC(C)c1nc(N(C)S(C)(=O)=O)nc(-c2ccc(F)cc2)c1/C=C/[C@@H](O)C[C@@H](O)CC(=O)O` [rosuvastatin], the “median LDL-C lowering response” value was 50% and the “share of patients with LDL-C reduction <50%” value is reported as 43%.
